Data reported in US20250136606A1, “MODULATORS OF TRPML, THEIR COMPOSITIONS AND METHODS OF USE” (Caraway Therapeutics, Inc., priority 2021, published 2025).

Key:
Format in all cases: cell-based
Conditions in all cases: fluorescent calcium assay
TRPML1 = TRPML1 (Homo sapiens, UniProt Q9GZU1); experiment: Fluorescent TRPML1 assay (Fluo4-AM calcium fluorescence in doxycycline-induced HEK-293 Trex cells)
How it was run: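 HEK-293 Trex cells stably expressing surface-directed mutant human TRPML1, induced with 0.5 µg/mL doxycycline overnight, were loaded with 1 µM Fluo4-AM and added to compound (6 nM–20 µM final, half-log steps, triplicate) in Ringer's with 10 mM calcium. Fluorescence ex 480/em 540; EC50 by non-linear regression versus plate controls.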

TRPML2 = molecular target: T1, TRPML2 (Homo sapiens, UniProt Q8IZK6); experiment: Fluorescent TRPML2 assay (performed as for TRPML1, substituting the TRPML2 subtype)
T1 construct: expressed in transfected cells
T1 sequence (Q8IZK6 1-566): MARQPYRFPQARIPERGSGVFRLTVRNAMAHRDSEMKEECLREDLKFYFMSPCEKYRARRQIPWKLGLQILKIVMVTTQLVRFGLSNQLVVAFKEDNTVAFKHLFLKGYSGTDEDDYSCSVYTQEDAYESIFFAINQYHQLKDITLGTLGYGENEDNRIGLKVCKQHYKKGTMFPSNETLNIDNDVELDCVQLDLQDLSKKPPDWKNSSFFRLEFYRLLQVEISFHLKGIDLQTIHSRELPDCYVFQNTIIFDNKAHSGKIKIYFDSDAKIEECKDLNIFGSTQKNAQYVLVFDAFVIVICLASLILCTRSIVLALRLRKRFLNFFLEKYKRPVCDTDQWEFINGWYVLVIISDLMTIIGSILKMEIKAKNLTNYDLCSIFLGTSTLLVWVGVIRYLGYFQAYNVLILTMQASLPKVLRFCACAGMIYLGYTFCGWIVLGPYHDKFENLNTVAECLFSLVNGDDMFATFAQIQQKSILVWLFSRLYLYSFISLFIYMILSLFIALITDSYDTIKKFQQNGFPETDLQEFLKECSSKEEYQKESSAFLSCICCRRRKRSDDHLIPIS
How it was run: (§1)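 HEK-293 Trex, dox-induced (0.5 ug/mL), mutated for surface expression. Fluo4-AM 1 micromolar load ~60 min, dark; buffer modified Ringer's, 10 mM Ca. Cpds 20 micromolar–6 nanomolar final, half-log, n=3. Read ex 480/em 540; % activity vs controls; EC50 nonlinear fit.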

TRPML3 = molecular target: T2, TRPML3 (Homo sapiens, UniProt Q8TDD5); experiment: Fluorescent TRPML3 assay (performed as for TRPML1, substituting the TRPML3 subtype)
T2 construct: expressed in transfected cells
T2 sequence (Q8TDD5 1-553): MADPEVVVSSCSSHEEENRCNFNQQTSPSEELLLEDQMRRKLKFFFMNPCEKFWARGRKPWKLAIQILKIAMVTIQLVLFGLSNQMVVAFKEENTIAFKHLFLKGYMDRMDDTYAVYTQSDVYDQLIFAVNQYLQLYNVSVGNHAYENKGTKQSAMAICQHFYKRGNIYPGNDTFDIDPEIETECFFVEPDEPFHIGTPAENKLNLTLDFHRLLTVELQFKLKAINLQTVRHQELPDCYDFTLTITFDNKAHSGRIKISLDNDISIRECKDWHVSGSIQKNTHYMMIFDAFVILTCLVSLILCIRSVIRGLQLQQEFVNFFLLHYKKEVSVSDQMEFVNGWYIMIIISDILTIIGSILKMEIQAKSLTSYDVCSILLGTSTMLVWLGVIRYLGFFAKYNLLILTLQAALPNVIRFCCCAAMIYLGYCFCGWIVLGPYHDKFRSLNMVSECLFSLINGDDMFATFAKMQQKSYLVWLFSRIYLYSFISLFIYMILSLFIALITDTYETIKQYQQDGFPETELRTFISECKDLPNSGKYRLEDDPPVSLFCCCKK
How it was run: as §1

Chain of TRPML1 (Q9GZU1 whole entry L15A/L16A/L577A/L578A, form open): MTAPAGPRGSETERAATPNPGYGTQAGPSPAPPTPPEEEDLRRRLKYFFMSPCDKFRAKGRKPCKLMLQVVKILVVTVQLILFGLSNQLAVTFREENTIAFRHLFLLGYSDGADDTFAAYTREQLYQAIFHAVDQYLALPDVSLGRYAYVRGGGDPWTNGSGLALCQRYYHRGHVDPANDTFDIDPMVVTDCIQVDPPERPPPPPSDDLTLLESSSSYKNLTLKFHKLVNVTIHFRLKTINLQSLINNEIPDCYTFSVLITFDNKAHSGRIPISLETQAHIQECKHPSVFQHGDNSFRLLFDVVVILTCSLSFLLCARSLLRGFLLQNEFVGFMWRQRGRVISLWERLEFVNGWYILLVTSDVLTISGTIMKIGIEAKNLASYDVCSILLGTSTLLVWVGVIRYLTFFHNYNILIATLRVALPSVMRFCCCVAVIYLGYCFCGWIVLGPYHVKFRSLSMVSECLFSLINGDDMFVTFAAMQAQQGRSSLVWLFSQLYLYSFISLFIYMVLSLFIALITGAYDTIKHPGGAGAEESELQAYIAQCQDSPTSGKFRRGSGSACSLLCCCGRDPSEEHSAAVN

SMILES | EC50 (TRPML1) | EC50 (TRPML2) | EC50 (TRPML3)
C[C@H]1CN(C(=O)OC(C)(C)C)CCN1c1ncnc2c1c(N1CCCC1)cn2-c1cc(C#N)ccn1 [Compound 370, tert-butyl (S)-4-(7-(4-cyanopyridin-2-yl)-5-(pyrrolidin-1-yl)-7H-pyrrolo[2,3-d]pyrimidin-4-yl)-3-methylpiperazine-1-carboxylate] | < 100 nM | 100 to 500 nM | < 100 nM
C[C@H]1CN(C(=O)OCC(F)(F)F)CCN1c1ncnc2c1c(-c1ccccc1)cn2-c1cc(C#N)ccn1 [Compound 371, 2,2,2-trifluoroethyl (S)-4-(7-(4-cyanopyridin-2-yl)-5-phenyl-7H-pyrrolo[2,3-d]pyrimidin-4-yl)-3-methylpiperazine-1-carboxylate] | < 100 nM | 500 to 2000 nM | < 100 nM
Cc1c(F)cc(-n2cc(N3CCCC3)c3c(N4CCN(C(=O)OC(C)(C)C)C[C@@H]4C)ncnc32)cc1F [Compound 374, tert-butyl (S)-4-(7-(3,5-difluoro-4-methylphenyl)-5-(pyrrolidin-1-yl)-7H-pyrrolo[2,3-d]pyrimidin-4-yl)-3-methylpiperazine-1-carboxylate] | 100 to 500 nM | 500 to 2000 nM | < 100 nM
C[C@@H]1CN(c2ncnc3c2c(C2CC2)cn3-c2cc(C#N)ccn2)CCN1C(=O)OCC(F)(F)F [Compound 377, 2,2,2-trifluoroethyl (R)-4-(7-(4-cyanopyridin-2-yl)-5-cyclopropyl-7H-pyrrolo[2,3-d]pyrimidin-4-yl)-2-methylpiperazine-1-carboxylate] | < 100 nM | 100 to 500 nM | < 100 nM
C[C@@H]1CN(c2ncnc3c2c(C2CC2)cn3-c2cc(C#N)ccn2)CCN1C(=O)OC(C)(C)C [Compound 384, tert-butyl (R)-4-(7-(4-cyanopyridin-2-yl)-5-cyclopropyl-7H-pyrrolo[2,3-d]pyrimidin-4-yl)-2-methylpiperazine-1-carboxylate] | < 100 nM | 100 to 500 nM | < 100 nM
C[C@H]1CN(C(=O)OC(C)(C)C)CCN1c1ncnc2c1c(C1CC1)cn2-c1ccc(F)c(OC(F)(F)F)c1 [Compound 387, tert-butyl (S)-4-(5-cyclopropyl-7-(4-fluoro-3-(trifluoromethoxy)phenyl)-7H-pyrrolo[2,3-d]pyrimidin-4-yl)-3-methylpiperazine-1-carboxylate] | 500 to 2000 nM | 100 to 500 nM | < 100 nM
C[C@@H]1CN(c2ncnc3c2c(N2CCC2)cn3-c2cc(C#N)ccn2)CCN1C(=O)OC(C)(C)C [Compound 388, tert-butyl (R)-4-(5-(azetidin-1-yl)-7-(4-cyanopyridin-2-yl)-7H-pyrrolo[2,3-d]pyrimidin-4-yl)-2-methylpiperazine-1-carboxylate] | < 100 nM | < 100 nM | < 100 nM
C[C@@H]1CN(C(=O)OC(C)(C)C)CCN1c1ncnc2c1c(-c1ccccc1F)cn2-c1cc(C#N)ccn1 [Compound 389, tert-butyl (R)-4-(7-(4-cyanopyridin-2-yl)-5-(2-fluorophenyl)-7H-pyrrolo[2,3-d]pyrimidin-4-yl)-3-methylpiperazine-1-carboxylate] | 500 to 2000 nM | 100 to 500 nM | < 100 nM
CC(C)(C)OC(=O)N1CCN(c2ncnc3c2c(-c2ccccc2F)cn3-c2cc(C#N)ccn2)CC1(C)C [Compound 391] | < 100 nM | 100 to 500 nM | < 100 nM
C[C@H]1CN(C(=O)OC(C)(C)C)CCN1c1ncnc2c1c(C1CC1)cn2C1CCC1 [Compound 398, tert-butyl (S)-4-(7-cyclobutyl-5-cyclopropyl-7H-pyrrolo[2,3-d]pyrimidin-4-yl)-3-methylpiperazine-1-carboxylate] | < 100 nM | 100 to 500 nM | 100 to 500 nM
C[C@H]1CN(C(=O)OC(C)(C)C)CCN1c1ncnc2c1c(CN1CCCC1)cn2-c1cccc(C#N)c1 [Compound 400, tert-butyl (S)-4-(7-(3-cyanophenyl)-5-(pyrrolidin-1-ylmethyl)-7H-pyrrolo[2,3-d]pyrimidin-4-yl)-3-methylpiperazine-1-carboxylate] | 500 to 2000 nM | > 2000 nM | 500 to 2000 nM
C[C@H]1CN(C(=O)OC(C)(C)C)CCN1c1ncnc2c1c(N1CCCC1)cn2C1CCCC(F)(F)C1 (stereo partly drawn) [Compound 401, tert-butyl (3S)-4-(7-(3,3-difluorocyclohexyl)-5-(pyrrolidin-1-yl)-7H-pyrrolo[2,3-d]pyrimidin-4-yl)-3-methylpiperazine-1-carboxylate] | 100 to 500 nM | > 2000 nM | < 100 nM
C[C@H]1CN(C(=O)OC(C)(C)C)CCN1c1ncnc2c1c(C1(C)CC1)cn2-c1cccc(C#N)c1 [Compound 402, tert-butyl (S)-4-(7-(3-cyanophenyl)-5-(1-methylcyclopropyl)-7H-pyrrolo[2,3-d]pyrimidin-4-yl)-3-methylpiperazine-1-carboxylate] | < 100 nM | 500 to 2000 nM | < 100 nM

Now from value to compound:

EC50 (TRPML1) | EC50 (TRPML2) | EC50 (TRPML3) | SMILES
100 to 500 nM | 500 to 2000 nM | 100 to 500 nM | C[C@@H]1COCCN1c1cn(-c2cccc(C#N)c2)c2ncnc(N3CCN(C(=O)OC(C)(C)C)C[C@@H]3C)c12 [Compound 369, tert-butyl (S)-4-(7-(3-cyanophenyl)-5-((R)-3-methylmorpholino)-7H-pyrrolo[2,3-d]pyrimidin-4-yl)-3-methylpiperazine-1-carboxylate]
< 100 nM | 100 to 500 nM | < 100 nM | CCN(CC)c1cn(-c2cccc(Cl)c2)c2ncnc(N3CCN(C(=O)OC(C)(C)C)[C@H](C)C3)c12 [Compound 375, tert-butyl (R)-4-(7-(3-chlorophenyl)-5-(diethylamino)-7H-pyrrolo[2,3-d]pyrimidin-4-yl)-2-methylpiperazine-1-carboxylate]
< 100 nM | 100 to 500 nM | < 100 nM | C[C@H]1CN(C(=O)OC(C)(C)C)CCN1c1ncnc2c1c(C1CC1(F)F)cn2-c1cccc(C#N)c1 (stereo partly drawn) [Compound 376]
< 100 nM | < 100 nM | < 100 nM | C[C@@H]1CN(c2ncnc3c2c(-c2ccccc2F)cn3-c2cc(C#N)ccn2)CCN1C(=O)OCC(F)(F)F [Compound 378, 2,2,2-trifluoroethyl (R)-4-(7-(4-cyanopyridin-2-yl)-5-(2-fluorophenyl)-7H-pyrrolo[2,3-d]pyrimidin-4-yl)-2-methylpiperazine-1-carboxylate]
500 to 2000 nM | > 2000 nM | 500 to 2000 nM | C[C@H]1COCCN1c1cn(-c2cccc(C#N)c2)c2ncnc(N3CCN(C(=O)OC(C)(C)C)C[C@@H]3C)c12 [Compound 379, tert-butyl (S)-4-(7-(3-cyanophenyl)-5-((S)-3-methylmorpholino)-7H-pyrrolo[2,3-d]pyrimidin-4-yl)-3-methylpiperazine-1-carboxylate]
> 2000 nM | > 2000 nM | > 2000 nM | C[C@H]1CN(C(=O)OC(C)(C)C)CCN1c1ncnc2c1c(N1CCN(C)CC1)cn2-c1cc(C#N)ccn1 [Compound 381, tert-butyl (S)-4-(7-(4-cyanopyridin-2-yl)-5-(4-methylpiperazin-1-yl)-7H-pyrrolo[2,3-d]pyrimidin-4-yl)-3-methylpiperazine-1-carboxylate]
< 100 nM | < 100 nM | < 100 nM | C[C@@H]1CN(c2ncnc3c2c(-c2ccccc2F)cn3-c2cc(C#N)ccn2)[C@@H](C)CN1C(=O)OC(C)(C)C [Compound 390]
100 to 500 nM | 500 to 2000 nM | < 100 nM | C[C@H]1CN(C(=O)OC(C)(C)C)CCN1c1ncnc2c1c(N1CCCC1)cn2-c1cc(Cl)cc(C#N)c1 [Compound 399, tert-butyl (S)-4-(7-(3-chloro-5-cyanophenyl)-5-(pyrrolidin-1-yl)-7H-pyrrolo[2,3-d]pyrimidin-4-yl)-3-methylpiperazine-1-carboxylate]
